Assay results: US8741806B2, “Herbicides” (Syngenta Limited, priority 2009, dated 2014)

Experiments:
Format in all cases: in vivo
[1] = system: Alopecurus myosuroides (ALOMY); assay: Example B pre-emergence herbicidal activity, glasshouse pot test; settings: 312 h, rate 250 g/ha, evaluated after 13 days, scale 0-100, read-out: Pre-emergence activity ALOMY (100=total damage to plant; 0=no damage to plant)
Experimental: (§1) Seeds of a variety of test species were sown in standard soil in pots. After cultivation for one day (pre-emergence) or after 8 days cultivation (post-emergence) under controlled conditions in a glasshouse (at 24/16° C., day/night; 14 hours light; 65% humidity), the plants were sprayed with an aqueous spray solution derived from the formulation of the technical active ingredient of formula I in acetone/water (50:50) solution containing 0.5% Tween 20 (polyoxyethelyene sorbitan monolaurate, CAS RN 9005-64-5). The test plants were then grown in a glasshouse under controlled conditions in a glasshouse (at 24/16° C., day/night; 14 hours light; 65% humidity) and watered twice daily. After 13 days for pre and post-emergence, the test was evaluated (100=total damage to plant; 0=no damage to plant). Setaria faberi (SETFA), Lolium perenne (LOLPE), Alopecurus myosuroides (ALOMY), Echinochloa crus-galli (ECHCG), and Avena fatua (AVEFA). Pre-Emergence Activity

Avena fatua (AVEFA) [2] = assay: as above; settings: 312 h, rate 250 g/ha, evaluated after 13 days, scale 0-100, read-out: Pre-emergence activity AVEFA (100=total damage to plant; 0=no damage to plant)
Experimental: as §1

[3] = system: Echinochloa crus-galli (ECHCG); assay: as above; settings: 312 h, rate 250 g/ha, evaluated after 13 days, scale 0-100, read-out: Pre-emergence activity ECHCG (100=total damage to plant; 0=no damage to plant)
Experimental: as §1

Lolium perenne (LOLPE) [4] = assay: as above; settings: 312 h, rate 250 g/ha, evaluated after 13 days, scale 0-100, read-out: Pre-emergence activity LOLPE (100=total damage to plant; 0=no damage to plant)
Experimental: as §1

[5] = system: Alopecurus myosuroides (ALOMY); assay: Example B post-emergence herbicidal activity, glasshouse pot test; settings: 312 h, rate 250 g/ha, evaluated after 13 days, scale 0-100, read-out: Post-emergence activity ALOMY (100=total damage to plant; 0=no damage to plant)
Experimental: as §1, with “Post-Emergence” for “Pre-Emergence”

Avena fatua (AVEFA) [6] = assay: as above; settings: 312 h, rate 250 g/ha, evaluated after 13 days, scale 0-100, read-out: Post-emergence activity AVEFA (100=total damage to plant; 0=no damage to plant)
Experimental: as §1, with “Post-Emergence” for “Pre-Emergence”

[7] = system: Echinochloa crus-galli (ECHCG); assay: as above; settings: 312 h, rate 250 g/ha, evaluated after 13 days, scale 0-100, read-out: Post-emergence activity ECHCG (100=total damage to plant; 0=no damage to plant)
Experimental: as §1, with “Post-Emergence” for “Pre-Emergence”

Lolium perenne (LOLPE) [8] = assay: as above; settings: 312 h, rate 250 g/ha, evaluated after 13 days, scale 0-100, read-out: Post-emergence activity LOLPE (100=total damage to plant; 0=no damage to plant)
Experimental: as §1, with “Post-Emergence” for “Pre-Emergence”

| Structure (SMILES) | pest or weed control at 250 g/ha [1] [%] | pest or weed control at 250 g/ha (Avena fatua (AVEFA) [2]) [%] | pest or weed control at 250 g/ha [3] [%] | pest or weed control at 250 g/ha (Lolium perenne (LOLPE) [4]) [%] | pest or weed control at 250 g/ha [5] [%] | pest or weed control at 250 g/ha (Avena fatua (AVEFA) [6]) [%] | pest or weed control at 250 g/ha [7] [%] | pest or weed control at 250 g/ha (Lolium perenne (LOLPE) [8]) [%] |
| --- | --- | --- | --- | --- | --- | --- | --- | --- |
| CCc1ccc(-c2ccc(Cl)nc2)cc1C1=C(O)CCCC1=O [Compound T42] | 0 | 0 | 20 | 0 | 50 | 20 | 100 | 50 |
| CCc1ccc(-c2ccc(Cl)c(Cl)c2Cl)cc1C1=C(O)CCCC1=O [Compound T54] | 0 | 0 | 70 | 20 | 20 | 0 | 80 | 60 |
| CCc1ccc(-c2ccc(Cl)cc2Cl)cc1C1=C(O)CCCC1=O [Compound T44] | 0 | 0 | 90 | 80 | 30 | 0 | 100 | 80 |
| CCc1ccc(-c2ccc(Cl)c(F)c2Cl)cc1C1=C(O)C(C)(C)CCC1=O [Compound T15] | 0 | 0 | 100 | 90 | 0 | 40 | 100 | 50 |
| CCc1ccc(-c2c(F)cc(Cl)cc2F)cc1C1=C(O)C(C)(C)CCC1=O [Compound T13] | 0 | 0 | 40 | 50 | 0 | 0 | 100 | 50 |
| CCc1ccc(-c2ccc(Cl)nc2Cl)cc1C1=C(O)C(C)(C)CCC1=O [Compound T12] | 0 | 0 | 0 | 0 | 0 | 0 | 90 | 0 |
| CCc1ccc(-c2ccc(Cl)nc2)cc1C1=C(O)C(C)(C)CCC1=O [Compound T11] | 0 | 0 | 20 | 0 | 60 | 60 | 90 | 60 |
| CCc1ccc(-c2c(F)cc(Cl)cc2Cl)cc1C1=C(O)CCCC1=O [Compound T51] | 20 | 40 | 80 | 100 | 40 | 50 | 90 | 90 |
| CCc1ccc(-c2ccc(Cl)c(C(F)(F)F)c2)cc1C1=C(O)CCCC1=O [Compound T41] | 20 | 30 | 100 | 100 | 60 | 50 | 90 | 100 |
| CCc1ccc(-c2ccc(Cl)c(OC)c2)cc1C1=C(O)CC(C)(C)CC1=O [Compound T23] | 40 | 20 | 90 | 70 | 90 | 60 | 100 | 100 |
| CCc1ccc(-c2ccc(Cl)c(Cl)c2F)cc1C1=C(O)C(C)(C)CCC1=O [Compound T17] | 0 | 0 | 80 | 0 | 0 | 0 | 90 | 40 |
| CCc1ccc(-c2ccc(Cl)c(F)c2)cc1C1=C(O)C(C)(C)CC(C)(C)C1=O [Compound T64] | 30 | 10 | 70 | 60 | 50 | 80 | 100 | 80 |
| CCc1ccc(-c2ccc(C(F)(F)F)cc2)cc1C1=C(O)CCCC1=O [Compound T59] | 100 | 100 | 100 | 100 | 100 | 100 | 100 | 100 |
| CCc1ccc(-c2ccc(Cl)c(F)c2Cl)cc1C1=C(O)CC(C)(C)CC1=O [Compound T29] | 40 | 0 | 90 | 70 | 40 | 30 | 100 | 100 |
| CCc1ccc(-c2ccc(Cl)c(F)c2)cc1C1=C(O)C(C)(C)CCC1=O [Compound T10] | 0 | 20 | 100 | 90 | 70 | 90 | 100 | 90 |
| CCc1ccc(-c2ccc(Cl)s2)cc1C1=C(O)CCCC1=O [Compound T55] | 20 | 0 | 40 | 20 | 40 | 10 | 100 | 60 |
| CCc1ccc(-c2ccc(Cl)cc2C)cc1C1=C(O)CC(C)(C)CC1=O [Compound T21] | 0 | 30 | 40 | 50 | 0 | 0 | 80 | 70 |
| CCc1ccc(-c2ccc(Cl)c(OC)c2)cc1C1=C(O)C(C)(C)CCC1=O [Compound T6] | 0 | 0 | 80 | 0 | 0 | 40 | 100 | 60 |
| CCc1ccc(-c2ccc(Cl)c(F)c2F)cc1C1=C(O)CCCC1=O [Compound T52] | 40 | 30 | 100 | 90 | 70 | 80 | 100 | 100 |
